In patent publication US6531612B2, “Nitrile derivatives that inhibit cathepsin K” (Hoffman-La Roche Inc., priority 1999, dated 2003):

How the values were obtained:
Type in all cases: biochemical
human liver cathepsin L = target: T1, human liver cathepsin L (Homo sapiens, UniProt P07711); experiment: cathepsin L inhibitory activity; settings: room temperature, enzyme 3 nM, substrate 5 μM, pH 5.5
T1 construct: using human liver cathepsin L (Calbiochem) at a final concentration of 3 nM; purchased Calbiochem; host or cells: human liver (tissue-derived)
Description: (§1) The inhibitory activity of the compounds against cathepsin K, S, L and B was tested at room temperature in 96-wells opaque white polystyrene plates (Costar). The cathepsin K inhibitory activity was tested as follows:
(§2) 5 μl of an inhibitor diluted in 5 mM sodium phosphate, NaCl 15 mM pH 7.4 containing 1% DMSO (final concentrations: 10−0.0001 μM) were preincubated for 10 min with 35 μl of human recombinant cathepsin K (final concentration: 1 nM) diluted in assay buffer (100 mM sodium acetate pH 5.5 containing 5 mM EDTA and 20 mM cysteine). After addition of 10 μl of the fluorogenic substrate Z-Leu-Arg-MCA diluted in assay buffer (final concentration: 5 μM), increase of fluorescence (excitation at 390 nm and emission at 460 nm) was measured for 7.5 min every 45 sec. The initial velocity (RFU/min) was derived from the linear fit of the 11 reading points.
The cathepsin L inhibitory activity was assayed under the same conditions as the cathepsin K inhibitory activity using human liver cathepsin L (Calbiochem) at a final concentration of 3 nM.
(§3) The results are given as IC50 values which denote the concentration of the inhibitor at which the enzymatic activity is inhibited by 50%. The IC50 values are determined from a linear regression curve from a logit-log plot.

human liver cathepsin B = target: T2, human liver cathepsin B (Homo sapiens, UniProt P07858); experiment: cathepsin B inhibitory activity; settings: room temperature, enzyme 1 nM, substrate 5 μM, pH 5.5
T2 construct: using human liver cathepsin B (Calbiochem) at a final concentration of 1 nM; purchased Calbiochem; host or cells: human liver (tissue-derived)
Description: as §1, §2
The cathepsin B inhibitory activity was assayed under the same conditions as the cathepsin K inhibitory activity using human liver cathepsin B (Calbiochem) at a final concentration of 1 nM.
as §3

[1] = target: T3, human recombinant cathepsin K (Homo sapiens, UniProt P43235); experiment: cathepsin K inhibitory activity (fluorogenic substrate Z-Leu-Arg-MCA); settings: room temperature, enzyme 1 nM, substrate 5 μM, pH 5.5
T3 sequence (P43235 115-329): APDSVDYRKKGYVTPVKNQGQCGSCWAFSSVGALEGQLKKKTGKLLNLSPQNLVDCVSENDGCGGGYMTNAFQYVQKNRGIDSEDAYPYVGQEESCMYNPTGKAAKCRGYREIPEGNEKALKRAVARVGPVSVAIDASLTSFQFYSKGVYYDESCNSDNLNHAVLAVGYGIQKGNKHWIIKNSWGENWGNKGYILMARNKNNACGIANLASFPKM
Description: as §1, §2, §3

[2] = target: Human recombinant cathepsin S (Homo sapiens, UniProt P25774); experiment: cathepsin S inhibitory activity (fluorogenic substrate Z-Val-Val-Arg-MCA); settings: room temperature, enzyme 0.5 nM, substrate 20 μM, pH 6.5
Description: as §1, §2
Cathepsin S inhibitory activity was assayed analogeously to the cathepsin K inhibitory activity, except that the buffer was 100 mM potassium phosphate, 5 mM EDTA, 5 mM DTT (freshly added), 0.01% Triton X-100, pH 6.5 and the fluorogenic substrate was Z-Val-Val-Arg-MCA (Bachem) (final concentration: 20 μM). Human recombinant cathepsin S (Wiederanders et al., Eur. J. Biochem. 1997, 250, 745-750) was used at a final concentration of 0.5 nM.
as §3

T1 sequence (P07711 114-333): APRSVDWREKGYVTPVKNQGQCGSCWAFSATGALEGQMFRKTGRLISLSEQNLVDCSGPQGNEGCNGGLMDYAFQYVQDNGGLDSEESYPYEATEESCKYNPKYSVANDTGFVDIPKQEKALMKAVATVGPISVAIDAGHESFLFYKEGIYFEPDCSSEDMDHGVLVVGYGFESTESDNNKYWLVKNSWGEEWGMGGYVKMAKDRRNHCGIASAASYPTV
Human recombinant cathepsin S, sequence (P25774 115-331): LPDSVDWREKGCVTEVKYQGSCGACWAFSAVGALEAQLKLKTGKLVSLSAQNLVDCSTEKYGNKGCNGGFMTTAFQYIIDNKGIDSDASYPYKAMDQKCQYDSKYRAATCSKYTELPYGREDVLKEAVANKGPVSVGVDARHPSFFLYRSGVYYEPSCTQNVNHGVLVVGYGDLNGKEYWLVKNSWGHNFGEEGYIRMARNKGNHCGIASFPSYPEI

IC50 (human liver cathepsin L) [µM]	IC50 (human liver cathepsin B) [nM]	IC50 [1] [nM]	IC50 [2] [µM]	Structure (SMILES)
> 10	2800	46	> 10	N#C[C@H](NC(=O)[C@@H]1CCCN1C(=O)OCc1ccccc1)c1ccccc1 [10.2, (S)-2-[(R)-(Cyano-phenyl-methyl)-carbamoyl]-pyrrolidine-1-carboxylic acid benzyl ester]
> 10	2000	27	> 10	N#CC(NC(=O)[C@@H]1CCCN1C(=O)COCc1ccccc1)c1ccc2c(c1)OCO2 (mixture of isomers) [10.33, (S)-1-Benzyloxyacetyl-pyrrolidine-2-carboxylic acid ((R)- and (S)-benzo[1,3]dioxol-5-yl-cyano-methyl)-amide]
> 10	> 10000	26	> 10	Cc1ccccc1C(C#N)NC(=O)[C@@H]1CCCN1C(=O)OCc1ccccc1 (mixture of isomers) [10.20, (S)-2-[(R)- and (S)-(Cyano-o-tolyl-methyl)-carbamoyl]-pyrrolidine-1-carboxylic acid benzyl ester]
> 10	> 10000	16	> 10	N#CC(NC(=O)[C@@H]1CCCN1C(=O)OCc1ccccc1)c1cccc(Br)c1 (mixture of isomers) [10.22, (S)-2-{(R)- and (S)-[(3-Bromo-phenyl)-cyano-methyl]-carbamoyl}-pyrrolidine-1-carboxylic acid benzyl ester]
> 10	600	37	> 10	N#CC(NC(=O)[C@@H]1CCCN1C(=O)CCC1CCCC1)c1ccc2c(c1)OCO2 (mixture of isomers) [10.32, (S)-1-(3-Cyclopentyl-propionyl)-pyrrolidine-2-carboxylic acid ((R)- and (S)-benzo[l,3]dioxol-5-yl-cyano-methyl)-amide]
> 10	600	18	> 10	COc1ccc(C(C#N)NC(=O)[C@@H]2CCCN2C(=O)Cc2cccc(Br)c2)cc1OC (stereo partly drawn) [11.2, (S)-1-[2-(3-Bromo-phenyl)-ethanoyl]-pyrrolidine-2-carboxylic acid [1-cyano-1-(3,4-dimethoxy-phenyl)-methyl]-amide]
> 10	> 10000	45	> 10	COc1cc(C(C#N)NC(=O)[C@@H]2CCCN2C(=O)OCc2ccccc2)ccc1OCc1ccccc1 (mixture of isomers) [10.28, (S)-2-{(R)- and (S)-[(4-Benzyloxy-3-methoxy-phenyl)-cyano-methyl]-carbamoyl}-pyrrolidine-1-carboxylic acid benzyl ester]
> 10	9500	14	> 10	N#CC(NC(=O)[C@@H]1CCCN1C(=O)OCc1ccccc1)c1ccc2c(c1)OCO2 (mixture of isomers) [10.9, (S)-2-[(R)- and (S)-(Benzo[l,3]dioxol-5-yl-cyano-methyl)-carbamoyl]-pyrrolidine-1-carboxylic acid benzyl ester]
> 10	4000	26	> 10	N#CC(NC(=O)[C@@H]1CCCN1C(=O)Cc1ccc(Br)cc1)c1ccc2c(c1)OCO2 (stereo partly drawn) [11.10, (S)-1-[2-(4-Bromo-phenyl)-ethanoyl]-pyrrolidine-2-carboxylic acid (1-benzo[1,3]dioxol-5-yl-1-cyano-methyl)-amide]
7	2000	15	> 10	N#CC(NC(=O)[C@@H]1CCCN1C(=O)Cc1cccc(Br)c1)c1ccc2c(c1)OCO2 (stereo partly drawn) [11.1, (S)-1-[2-(3-Bromo-phenyl)-ethanoyl]-pyrrolidine-2-carboxylic acid (1-benzo[1,3]dioxol-5-yl-1-cyano-methyl)-amide]
> 10	600	68	> 10	COc1ccc(C(C#N)NC(=O)[C@@H]2[C@H](C)CCN2C(=O)OCc2ccccc2)cc1OC (mixture of isomers) [10.11, (2S,3R)-2-{(R)- and (S)-[Cyano-(3,4-dimethoxy-phenyl)-methyl]-carbamoyl}-3-methyl-pyrrolidine-1-carboxylic acid benzyl ester]
> 10	6200	64	> 10	COc1ccc(C(C#N)NC(=O)[C@@H]2CCCN2C(=S)NCc2ccco2)cc1OC (mixture of isomers) [10.14, (S)-1-[(Furan-2-ylmethyl)-thiocarbamoyl]-pyrrolidine-2-carboxylic acid [(R)- and (S)-cyano-(3,4-dimethoxy-phenyl)-methyl]-amide]
